Source: patent US20250082781A1, “METHODS OF LOWERING BLOOD GLUCOSE AND TREATING TYPE 2 DIABETES BY ACTIVATION OF PDE4D3” (Salk Institute for Biological Studies, priority 2021, published 2025)

What was measured:
3T3-L1 adipocytes = experiment: In vitro lipolysis assay (FFA release), 3T3-L1 adipocytes; assay type: cell-based
Description: Differentiation of pre-adipocytes were based on previously published methods (Bunnell et al., 2008). Briefly, 3T3-L1 pre-adipocytes were grown to full confluence in DMEM, 10% FBS (GemCell, 100-500), 10 mM HEPES and antibiotic-antimycotic (full growth media). 2 days later, differentiation was induced by replacing the media with 1 μM dexamethasone, 1 μM rosiglitazone, 500 μM IBMX and 5 μg/ml insulin in full growth media 2 days later after reaching full confluence. Two days later media was replaced by differentiation induction media with 1 μM rosiglitazone and 5 μg/ml insulin for 4 days with media change after 2 days. Cells were kept in maintenance medium (full growth media with 5 μg/ml insulin) for 4 more days for full differentiation. For differentiation of mouse SVF derived adipocytes, the protocol was same except DMEM/F12 (10565018, ThermoFisher) was used as base media and initial differentiation induction media was kept for 3 days. For differentiation of human subcutaneous adipocytes, protocol and media from the manufacturer (C-12735, C-39437, Promocell) were used. Dexamethasone was omitted from the media in the last 3 days before performing experiments. Both mouse and human SVF derived adipocytes were differentiated in collagen coated plates (A1142802, ThermoFisher).
For in vitro lipolysis assay, cells were washed with PBS and media were changed to full growth media 1 day before experiment. Cells were serum starved for 2 h and placed in KRBH buffer (30 mM HEPES, 120 mM NaCl, 4 mM KH2PO4, 1 mM MgSO4, 0.75 mM CaCl2), and 10 mM NaHCO3) with 2% fatty acid free BSA and 5 mM glucose. FGF1 was added 10 min before induction of lipolysis with 100 nM isoprotenol (ISO). Inhibitors were added 30 min prior to FGF1 treatment unless otherwise noted. Media were collected and cells were lysed in protein extraction buffer. FFAs were measured in the media using a commercial kit (Wako-NEFAHR2) and normalized to protein concentration. For ex vivo lipolysis, the assay was modified from a published protocol (Funicello et al., 2007). Briefly, approximately 0.1 gram of adipose tissue was excised, weighed and kept in cold PBS until treatment and control tissues were collected. Tissues were cut into small pieces and incubated in same KRBH buffer as described above for 4 h. FFAs were measured and normalized by the explant weights.

hepatic β-oxidation = experiment: β-oxidation assay of hepatic mitochondria; assay type: in vivo, mouse; conditions: ob/ob mice 14 h after FGF1 injection
Description: FIGS. 8A-8E: FGF1 decreases hepatic glucose production via controlling metabolic flux to gluconeogenesis. (FIG. 8A) Pyruvate tolerance test (PTT) (left panel) and glycerol tolerance test (Glycerol TT) of overnight-fasted DIO mice 2 h after vehicle (n=6) or FGF1 (n=7) injection (0.5 mg/kg). Data are represented as mean±SEM (*p<0.05, **p<0.01, ***p<0.001). (FIG. 8B) Schematic diagram showing the steps in hepatic glucose production. […] (FIG. 8C) Relative levels of the key metabolites involved in the citric acid cycle as measured by targeted metabolomic profiling. Data are represented as mean±SEM (vehicle n=5; FGF1 n=6). (FIG. 8D) Pyruvate carboxylase, PEPCK and G6Pase levels in livers of overnight fasted ob/ob mice 2 hours after injection of vehicle or FGF1, as measured by Western blot. Protein levels are normalized to actin for quantification (n=6/arm). (FIG. 8E) β-oxidation assay of hepatic mitochondria from ob/ob mice 14 h after Vehicle (PBS) or FGF1 injection. Mitochondria were incubated with BSA-conjugated ^14C palmitate, and released ^14C CO2 was measured by scintillation counting. Data are represented as mean±SEM (n=5/arm).

PDE4D = experiment: Western blot of PDE4D phosphorylation in 3T3-L1 adipocytes; assay type: cell-based
Description: Tissues were lysed in cold lysis buffer (50 mM Tris, pH 7.5, 150 mM NaCl, 1% NP40, 0.5% NaDoc, 0.1% SDS, 5% glycerol, 1 mM EDTA, protease and phosphatase inhibitors (complete and PhosSTOP (Roche)) by homogenization by bead-beater for 30 s. Samples were cleared for 10 min at 18,000 g at 4° C. and the middle clear phase was transferred to new tubes. A second 30 min centrifugation was performed and the middle clear phase was transferred to new tubes. Five ul protein extract was used for BCA assay to determine protein concentration. Samples were boiled in Laemmli buffer. SDS-PAGE and blotting were performed using gradient gels and Trans-Blot Turbo Transfer System (Bio-Rad). Antibodies used were PDE4D (12918-1-AP, Proteintech), pHSL-660 (4126S, Cell signaling), HSL (4107S, Cell Signaling), tubulin (CP06, Millipore Sigma), and GFP (A01388, GenScript). PDE4D3-pS44 phospho-specific antibody was generated using PDE4D3-S44 FRRHpSWISFDVDNGTSAGR peptide (SEQ ID NO: 20) (Mackenzie et al., 2002) by Pocono Rabbit Farm, using 70-day rabbit antibody production protocol and purified via affinity purification. Primary antibodies were incubated for 2 h at room temperature (RT) or overnight (ON) at 4° C. Blots were developed using SuperSignal West Pico PLUS Chemiluminescent Substrate (ThermoFisher Scientific) and imaged with BioRad GelDoc system.

Q: For “FGF1: Recombinant fibroblast growth factor 1 protein, dissolved in PBS, injected subcutaneously”, which “FGF1 suppression of lipolysis under FGFR1 inhibition” value (3T3-L1 adipocytes; FGF1 100 ng/ml with FGFR1 inhibitor PD 173074 1 μM) is on record?
A: blocked by FGFR1 inhibition

Q: What about the “FGF1-induced suppression of lipolysis under PDE3B inhibition” value (3T3-L1 adipocytes; FGF1 100 ng/ml with PDE3 inhibitors (cilostamide or quazinone 10 μM)) of the same substance?
A: did not impair

Q: What about the “anti-lipolytic activity of FGF1 with selective inhibitors of PDE4” value (3T3-L1 adipocytes; FGF1 100 ng/ml with roflumilast 2 μM or cilomulast 10 μM) of the same substance?
A: blocked by selective inhibitors of PDE4

Q: And the isoproterenol-induced lipolysis (3T3-L1 adipocytes; dose response of FGF1, ISO 100 nM, 4 h)?
A: dose-dependently suppressed isoproterenol-induced lipolysis

Q: What about the “hepatic β-oxidation” value (hepatic β-oxidation) of the same substance?
A: absence of any change

Q: What about the “FGF1-induced phosphorylation of PDE4D3 in the S44A mutant” value (PDE4D; 3T3-L1 adipocytes infected with adAAV PDE4D3 S44A) of the same substance?
A: lost

Q: What about the “S44 phosphorylation of PDE4D3” value (PDE4D; 3T3-L1 cells overexpressing PDE4D3, absence and presence of isoproterenol) of the same substance?
A: increased S44 phosphorylation

Q: What about the PDE4D phosphorylation (PDE4D; isoproterenol-stimulated, FGF1 co-treatment 100 ng/ml) of the same substance?
A: increased both the extent and duration of PDE4D phosphorylation
